Measured values: article PMC9862186 (International Journal of Molecular Sciences, 2023)

Assays:
PC12 cells = test: Dopamine release from neuronal differentiated PC12 cells (ELISA); format: cell-based, rat
Method: PC12 cell line (RRID:CVCL_0481), derived from rat adrenal gland pheochromocytoma, was a kind gift from Dr Federica Brugnoli from the Department of Translational Medicine, University of Ferrara, Ferrara (Italy). The cells were grown in RPMI-1640 (HiGlutaXL) medium (Microtech, Naples, Italy), supplemented with 100 µg/mL streptomycin and 100 IU/mL penicillin, 10% horse serum (HS), and 5% fetal bovine serum (FBS). PC12 cells were gently removed from the 4 µg/cm^2 collagen IV-coated flask with a rubber scraper, transferred as cell suspension into a Falcon tube and resuspended through a sterile tip to avoid any clumping, then split into separate flasks twice weekly. To differentiate neuronal phenotypes, PC12 cells were seeded in 4 µg/cm^2 collagen IV-coated 12-well plates at a density of 5000 cells/well, and they were then left to adhere to the well for 24 h. […] All the proliferative and differentiated cultures were maintained at 37 °C in a humidified 5% CO2 atmosphere.
PC12 cells differentiated to neuronal-like phenotype in collagen IV-treated 12-well plates, were first synchronized all to the same circadian phase and cell cycle by a serum shock (50% HS and 50% DMEM HiGlutaXL) for 2 h at 37 °C [49] to achieve a synchronous release of dopamine. Synchronization medium was then aspirated off, cells were washed with 3 × 1 mL and equilibrated for 15 min at 37 °C in 1 mL of Krebs Ringer HEPES (KRH) physiological buffer, following the recipe of Mount et al. (25 mM HEPES/Tris, pH 7.4, 1.2 mM KH2PO4, 125 mM NaCl, 4.8 mM KCl, 1.2 mM MgSO4, 2.2 mM CaCl2, 5.6 mM glucose, 1.0 mM ascorbic acid, 10 µM pargyline, 1.0 µM nomifensine). […] To remove cell debris, all samples of 1 mL incubation KRH at the end of treatments were centrifuged at 1000× g for 20 min at 4 °C and stored at −20 °C until dopamine levels were determined by ELISA assay.
Dopamine levels in 1 mL incubation KRH buffer were detected by means of an ELISA assay, based on the […] ELISA principle for detection of dopamine, following manufacturer’s instructions (IBL International, Hamburg, Germany–catalog no: RE59161; purchased from Tecan Italia S.r.I, Milan, Italy). After the substrate reaction, the intensity of the developed color was proportional to the amount of dopamine, detected at 450 nm using a microplate reader spectrophotometer (Sunrise® Microplate Reader, Tecan Trading AG, Männedorf, Switzerland). Results of samples were determined directly using the standard curve. Results are presented as mean ± SE values of four independent experiments. Data were plotted and analyzed with GraphPad software (Prism, version 7.0, San Diego, CA, USA).

[1] = rats, cited from earlier work
rats = conditions: cited from earlier work
in vivo [2] = conditions: rat, po
Method: At the end of the infusions and at fixed time points, CSF samples (50 μL) were withdrawn and blood samples (100 μL) were collected. The CSF was withdrawn using the cisternal puncture method described by van den Berg et al., which requires a single needle stick and allows the collection of serials (40–50 μL) CSF samples that are virtually blood-free. A total volume of about a maximum of 150 μL of CSF/rat (i.e., three 50 μL samples/rat) was collected during the experimental session, choosing the time points (n = 3–5, taking into account a maximum of three collections per rat) in order to allow the restoring of the CSF physiological volume.
(§1) Each type of formulation was administered to a group of four rats.
(§2) In particular, 4.2 mL of EU-CD formulation were administered to rats (500 mg/kg dose).
(§3) In particular, 320 μL of EU-SL formulation were administered to rats (500 mg/kg dose).
(§4) Free cinnamaldehyde (100 mg) was orally administered by gavage to rats kept fasting since 24 h. In particular, 95 μL of cinnamaldehyde (density = 1.05 g/mL) were dissolved in 905 μL of corn oil and administered to rats (400 mg/kg dose).
(§5) The solid AC-GN formulation (14% w/w cinnamaldehyde) was mixed with palatable food in order to induce their oral intake by the rats kept fasting since 24 h. In particular, the rats assumed a dose of 100 mg of cinnamaldehyde (400 mg/kg) contained in 714 mg of AC-GN.
(§6) After the administrations, blood (100 μL) and CSF samples (50 μL) were serially collected at fixed time points from each rat and treated as described above in order to quantify the compounds.

in vivo [3] = conditions: Wistar, rat
Method: as §1, §2, §3, §4, §5, §6
In particular, all the AUC values referred to the bloodstream were calculated by the trapezoidal method within the last time point detected, and the remaining area was obtained as the ratio between the compound concentration detected at the last time point and the elimination constant (kel), which was obtained from the slope of the semilogarithmic plots (−slope × 2.3). The clearance (Cl) and distribution volume (Vd) values were calculated according to the non-compartmental model as the ratios “dose/AUC” and “Cl/kel”, respectively, where kel is the elimination constant obtained by the slope of semilogarithmic plot.

Compound: C=CCc1ccc(O)c(OC)c1 [Eugenol]
- effect on dopamine release over pre-treatment baseline (PC12 cells; 25 µM, 5, 15, 30, 60 and 120 min, baseline 393 ± 12 pg/mL, p < 0.001 at 5, 15, 120 min, p < 0.05 at 30, 60 min): statistically significant increase
- incubation time with the higher effect on dopamine release (PC12 cells; 25 µM, time course 5, 15, 30, 60, 120 min, U-shaped curve): 120 min
- concentration giving the lower effect on dopamine release, still significant vs. basal (PC12 cells; 0.5, 1, 2, 5 and 25 µM for 5 min, basal release 947 ± 102 pg/mL): 5 µM
- t1/2 of the second elimination phase ([1]; iv eugenol): 13 to 20 min
- Cmax ([1]; oral 40 mg/kg): about 0.25 μg/mL
- oral LD50 (rats; oral): about 2 g/kg
- intravenous doses inducing anesthetic effects without relevant side effects (rats; rat, in vivo, iv): up to 60 mg/kg
- AUC (in vivo [2]): 516 ng·h/mL
- Tmax: time of Cmax in CSF (in vivo [2]): 20 min
- Tmax: time of Cmax in the bloodstream (in vivo [3]): 10 min
- bioavailability (in vivo [3]; po, F: absolute bioavailability, oral versus iv AUC normalized to dose): 4%
